These results are taken from ChEMBL document CHEMBL1201862, “PubChem BioAssay data set” (2004).

Active and inactive are the calls of the source.

One assay addresses Hexokinase-1 (Homo sapiens, UniProt P19367). The assay can be described thus: HK1 enzyme activation by HKDC1 hits – biochemical, selectivity assay for HKDC1 activator project, dose response (AID 504762). The format is functional.
Assay [1] concerns the target T1, Apoptotic protease-activating factor 1 (Homo sapiens, UniProt O14727).
T1 sequence (O14727 whole entry): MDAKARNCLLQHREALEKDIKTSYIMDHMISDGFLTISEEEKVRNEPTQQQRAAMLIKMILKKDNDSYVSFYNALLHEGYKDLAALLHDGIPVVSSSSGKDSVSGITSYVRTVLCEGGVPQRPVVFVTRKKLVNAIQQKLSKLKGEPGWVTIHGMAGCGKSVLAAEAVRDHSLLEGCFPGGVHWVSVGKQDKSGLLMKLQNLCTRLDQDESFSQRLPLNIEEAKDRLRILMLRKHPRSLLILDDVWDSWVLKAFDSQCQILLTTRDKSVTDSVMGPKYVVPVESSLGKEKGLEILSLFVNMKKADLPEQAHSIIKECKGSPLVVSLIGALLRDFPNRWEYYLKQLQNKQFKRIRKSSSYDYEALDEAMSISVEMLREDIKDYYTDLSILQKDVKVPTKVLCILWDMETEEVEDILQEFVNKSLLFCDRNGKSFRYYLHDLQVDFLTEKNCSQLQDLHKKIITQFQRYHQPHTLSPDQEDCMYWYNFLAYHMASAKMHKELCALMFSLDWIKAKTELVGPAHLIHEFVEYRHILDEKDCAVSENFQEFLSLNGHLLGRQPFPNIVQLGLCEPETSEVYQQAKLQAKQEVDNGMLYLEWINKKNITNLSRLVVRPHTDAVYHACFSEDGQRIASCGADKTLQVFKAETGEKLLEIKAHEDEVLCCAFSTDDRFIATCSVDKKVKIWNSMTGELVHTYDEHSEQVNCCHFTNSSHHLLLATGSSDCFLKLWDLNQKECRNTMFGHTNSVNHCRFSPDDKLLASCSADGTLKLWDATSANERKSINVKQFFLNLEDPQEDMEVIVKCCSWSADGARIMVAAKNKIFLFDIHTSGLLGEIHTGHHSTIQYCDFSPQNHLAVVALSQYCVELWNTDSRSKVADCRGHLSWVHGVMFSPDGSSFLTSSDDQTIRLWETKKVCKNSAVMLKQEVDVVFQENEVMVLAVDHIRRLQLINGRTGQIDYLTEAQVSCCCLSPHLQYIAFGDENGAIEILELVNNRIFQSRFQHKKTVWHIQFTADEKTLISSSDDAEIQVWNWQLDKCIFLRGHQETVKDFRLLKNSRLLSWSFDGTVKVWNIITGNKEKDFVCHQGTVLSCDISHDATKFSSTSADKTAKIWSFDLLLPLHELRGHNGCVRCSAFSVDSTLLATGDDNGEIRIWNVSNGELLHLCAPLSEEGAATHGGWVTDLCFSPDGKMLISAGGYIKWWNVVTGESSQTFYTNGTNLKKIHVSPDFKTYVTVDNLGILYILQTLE
The format is functional.

Another assay relates to Vero. The assay can be described thus: viability of Vero cells under compound – cytotoxicity control for flavivirus capping enzyme inhibitors (AID 588742). The following applies: Chlorocebus sabaeus. The format is functional.
The target of another assay is T2, Protein RecA (Mycobacterium tuberculosis, UniProt P9WHJ3).
T2 sequence (P9WHJ3 whole entry): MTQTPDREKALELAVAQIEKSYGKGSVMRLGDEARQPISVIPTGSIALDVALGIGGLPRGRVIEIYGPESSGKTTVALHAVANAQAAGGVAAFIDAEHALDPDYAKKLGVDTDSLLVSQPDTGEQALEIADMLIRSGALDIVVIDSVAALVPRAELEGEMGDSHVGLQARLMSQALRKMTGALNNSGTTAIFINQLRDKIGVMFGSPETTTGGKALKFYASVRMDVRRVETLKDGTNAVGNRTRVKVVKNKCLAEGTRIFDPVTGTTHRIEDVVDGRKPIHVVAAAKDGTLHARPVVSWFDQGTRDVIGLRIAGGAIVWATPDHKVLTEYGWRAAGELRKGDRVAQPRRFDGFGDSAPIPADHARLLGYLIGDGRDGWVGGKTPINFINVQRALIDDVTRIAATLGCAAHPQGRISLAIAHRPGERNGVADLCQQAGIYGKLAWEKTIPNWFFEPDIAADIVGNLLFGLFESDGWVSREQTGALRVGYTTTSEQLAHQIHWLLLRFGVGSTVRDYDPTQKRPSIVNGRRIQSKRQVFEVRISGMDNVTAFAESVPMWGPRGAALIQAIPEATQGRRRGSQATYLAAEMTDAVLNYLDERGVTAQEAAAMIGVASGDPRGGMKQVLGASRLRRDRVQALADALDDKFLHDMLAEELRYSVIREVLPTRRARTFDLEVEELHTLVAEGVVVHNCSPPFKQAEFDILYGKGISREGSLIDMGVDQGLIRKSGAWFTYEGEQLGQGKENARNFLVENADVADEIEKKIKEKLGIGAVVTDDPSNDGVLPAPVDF
Kind of assay: Fluorescence Cell-Free Homogeneous Dose Retest to Identify Inhibitors of RecA-Intein Splicing Activity. [Related pubchem assays (depositor defined):AID2097, AID2223, AID489010, AID492950]. The format is functional.

The next assay addresses Genome polyprotein (dengue virus type 2, UniProt P29990). Kind of assay: flavivirus cap methylation enzyme inhibition – biochemical, confirmation dose response, primary screen (AID 588689). The assay is classed as functional.
The target of another assay is T3, Hexokinase HKDC1 (Homo sapiens, UniProt Q2TB90).
T3 sequence (Q2TB90 whole entry): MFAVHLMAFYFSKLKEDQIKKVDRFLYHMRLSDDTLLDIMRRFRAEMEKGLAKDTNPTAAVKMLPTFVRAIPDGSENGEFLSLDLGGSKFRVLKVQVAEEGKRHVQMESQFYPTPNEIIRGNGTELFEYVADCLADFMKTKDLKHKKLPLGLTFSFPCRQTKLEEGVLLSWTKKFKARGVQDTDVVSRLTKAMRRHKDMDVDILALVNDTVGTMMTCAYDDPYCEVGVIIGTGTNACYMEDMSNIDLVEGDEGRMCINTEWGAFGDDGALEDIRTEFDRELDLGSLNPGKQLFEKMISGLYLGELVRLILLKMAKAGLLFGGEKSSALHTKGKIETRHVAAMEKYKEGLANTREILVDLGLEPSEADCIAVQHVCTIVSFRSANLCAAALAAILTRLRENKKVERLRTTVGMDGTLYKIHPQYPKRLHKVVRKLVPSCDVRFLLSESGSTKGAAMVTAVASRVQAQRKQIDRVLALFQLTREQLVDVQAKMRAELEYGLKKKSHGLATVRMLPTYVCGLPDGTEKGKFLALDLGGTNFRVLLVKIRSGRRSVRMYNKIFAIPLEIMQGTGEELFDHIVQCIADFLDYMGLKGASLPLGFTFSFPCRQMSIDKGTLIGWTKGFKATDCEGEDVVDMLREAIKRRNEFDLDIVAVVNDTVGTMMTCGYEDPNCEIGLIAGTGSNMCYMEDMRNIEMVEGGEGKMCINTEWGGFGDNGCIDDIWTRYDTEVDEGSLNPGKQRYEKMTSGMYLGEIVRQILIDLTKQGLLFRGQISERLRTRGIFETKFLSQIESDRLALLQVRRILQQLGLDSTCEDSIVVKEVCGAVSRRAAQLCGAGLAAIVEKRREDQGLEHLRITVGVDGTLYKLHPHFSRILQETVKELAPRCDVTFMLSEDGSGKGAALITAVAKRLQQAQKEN
The assay can be described thus: activation of HKDC1 glucose phosphorylation – biochemical, W721R variant, dose response (AID 504730). The assay is classed as functional.

Assay [2] concerns the target T4, Cannabinoid receptor 2 (Homo sapiens, UniProt P34972). The assay can be described thus: SAR analysis of antagonists of the Cannabinoid Receptor 2 using an Image-Based Assay - Set 3. [Related pubchem assays (depositor defined):AID2013, AID2026]. The assay is classed as functional.
For assay [3], the target named is T5, Cannabinoid receptor 1 (Homo sapiens, UniProt P21554). The assay can be described thus: SAR analysis of antagonists of the Cannabinoid Receptor 1 using an Image-Based Assay - Set 4. [Related pubchem assays (depositor defined):AID2013, AID2026]. The format is functional.
T5 sequence (P21554 whole entry): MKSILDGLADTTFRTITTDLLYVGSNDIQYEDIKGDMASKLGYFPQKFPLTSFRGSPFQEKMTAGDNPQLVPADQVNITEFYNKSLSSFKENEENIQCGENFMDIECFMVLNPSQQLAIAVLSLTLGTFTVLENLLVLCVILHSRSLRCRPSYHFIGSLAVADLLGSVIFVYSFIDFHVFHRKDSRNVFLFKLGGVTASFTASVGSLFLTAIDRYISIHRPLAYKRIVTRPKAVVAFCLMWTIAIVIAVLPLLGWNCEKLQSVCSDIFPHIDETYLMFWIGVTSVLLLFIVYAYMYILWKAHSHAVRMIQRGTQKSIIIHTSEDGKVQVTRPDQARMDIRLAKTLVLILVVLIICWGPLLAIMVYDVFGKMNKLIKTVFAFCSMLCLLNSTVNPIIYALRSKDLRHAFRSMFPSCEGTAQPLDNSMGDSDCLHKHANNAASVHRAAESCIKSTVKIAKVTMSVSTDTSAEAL
Assay [4] concerns the target T6, G-protein coupled receptor 35 (Homo sapiens, UniProt Q9HC97). The assay can be described thus: SAR analysis of Antagonists of the GPR35 Receptor using an Image-Based Assay - Set 6. [Related pubchem assays (depositor defined):AID2013, AID2026]. The assay is classed as functional.
Assay [5] concerns the target T4, Cannabinoid receptor 2. The assay can be described thus: SAR analysis of agonists of the Cannabinoid Receptor 2 using an Image-Based Assay - Set 3. [Related pubchem assays (depositor defined):AID2013, AID2026]. The assay is classed as functional.
Assay [6] has as its target T5, Cannabinoid receptor 1. The assay can be described thus: SAR analysis of agonists of the Cannabinoid Receptor 1 using an Image-Based Assay - Set 4. [Related pubchem assays (depositor defined):AID2013, AID2026]. The assay is classed as functional.
For assay [7], the target named is T6, G-protein coupled receptor 35. Kind of assay: SAR analysis of Agonists of the GPR35 Receptor using an Image-Based Assay - Set 4. [Related pubchem assays (depositor defined):AID2013, AID2026]. The format is functional.
Assay [8] concerns the target G-protein coupled receptor 55 (Homo sapiens, UniProt Q9Y2T6). Kind of assay: SAR Analysis of Selective Antagonists of GPR55 using an Image-Based Assay - Set 4. [Related pubchem assays (depositor defined):AID2013, AID2026]. The format is functional.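 Further: antagonism of response to 5 µM lysophosphatidylinositol agonist.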
The target in assay [9] is Intestinal-type alkaline phosphatase (Homo sapiens, UniProt P09923). Kind of assay: human intestinal alkaline phosphatase activators, dose response, biochemical, luminescence, uHTS hits (AID 463120). The format is functional.
Intestinal-type alkaline phosphatase, sequence (P09923 whole entry): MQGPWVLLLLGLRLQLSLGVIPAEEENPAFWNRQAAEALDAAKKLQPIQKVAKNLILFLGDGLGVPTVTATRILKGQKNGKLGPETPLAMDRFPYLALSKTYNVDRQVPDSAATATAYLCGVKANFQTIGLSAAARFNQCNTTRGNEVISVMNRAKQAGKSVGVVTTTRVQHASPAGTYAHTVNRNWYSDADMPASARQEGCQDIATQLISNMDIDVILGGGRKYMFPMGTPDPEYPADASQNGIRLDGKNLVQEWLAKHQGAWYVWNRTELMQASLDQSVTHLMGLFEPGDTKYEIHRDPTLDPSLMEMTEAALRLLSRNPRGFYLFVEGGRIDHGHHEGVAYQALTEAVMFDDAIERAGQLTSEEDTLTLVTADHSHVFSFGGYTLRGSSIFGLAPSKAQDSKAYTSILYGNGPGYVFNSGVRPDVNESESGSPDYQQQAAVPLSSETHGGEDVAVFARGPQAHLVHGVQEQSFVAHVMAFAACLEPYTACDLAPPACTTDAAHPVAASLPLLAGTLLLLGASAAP
Assay [10] deals with T7, Peroxisome proliferator-activated receptor gamma (Homo sapiens, UniProt P37231).
T7 sequence (P37231 whole entry): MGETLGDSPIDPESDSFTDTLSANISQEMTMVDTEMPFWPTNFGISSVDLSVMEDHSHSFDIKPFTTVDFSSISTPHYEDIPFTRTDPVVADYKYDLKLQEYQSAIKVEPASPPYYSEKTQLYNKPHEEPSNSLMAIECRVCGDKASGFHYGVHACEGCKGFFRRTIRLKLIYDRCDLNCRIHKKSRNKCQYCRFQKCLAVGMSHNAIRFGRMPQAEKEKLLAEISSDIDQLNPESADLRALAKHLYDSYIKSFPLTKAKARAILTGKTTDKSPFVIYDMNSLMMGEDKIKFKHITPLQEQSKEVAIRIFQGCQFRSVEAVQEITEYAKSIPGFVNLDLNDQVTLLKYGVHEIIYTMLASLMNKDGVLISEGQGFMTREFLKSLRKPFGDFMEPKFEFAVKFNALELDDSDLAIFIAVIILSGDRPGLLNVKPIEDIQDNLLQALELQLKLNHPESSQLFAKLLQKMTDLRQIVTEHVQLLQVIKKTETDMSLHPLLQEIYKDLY
The assay can be described thus: competitive ligand displacement at PPARg – biochemical, fluorescence polarization, PolarScreen, PPARg partial agonist project, dose response (AID 504453).

For assay [11], the target named is T7, Peroxisome proliferator-activated receptor gamma. Kind of assay: PPARg transcriptional activation, reporter cells – cell-based, luminescence, assay provider, dose response (AID 504447). The assay is classed as functional.
Assay [12] has the same target. Kind of assay: competitive ligand displacement at PPARg – biochemical, TR-FRET, LanthaScreen, PPARg partial agonist project, dose response (AID 504446). Background: Time-resolved FRET reads energy transfer from a long-lived donor to a nearby acceptor.

T6 sequence (Q9HC97 whole entry): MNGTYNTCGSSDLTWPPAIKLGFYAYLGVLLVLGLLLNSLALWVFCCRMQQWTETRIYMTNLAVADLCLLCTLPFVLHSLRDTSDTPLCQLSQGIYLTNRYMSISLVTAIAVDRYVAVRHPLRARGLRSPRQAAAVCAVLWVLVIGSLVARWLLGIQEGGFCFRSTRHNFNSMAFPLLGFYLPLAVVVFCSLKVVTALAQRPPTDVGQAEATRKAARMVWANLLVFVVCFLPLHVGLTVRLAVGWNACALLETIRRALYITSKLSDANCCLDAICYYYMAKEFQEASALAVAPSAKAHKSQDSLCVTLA
T4 sequence (P34972 whole entry): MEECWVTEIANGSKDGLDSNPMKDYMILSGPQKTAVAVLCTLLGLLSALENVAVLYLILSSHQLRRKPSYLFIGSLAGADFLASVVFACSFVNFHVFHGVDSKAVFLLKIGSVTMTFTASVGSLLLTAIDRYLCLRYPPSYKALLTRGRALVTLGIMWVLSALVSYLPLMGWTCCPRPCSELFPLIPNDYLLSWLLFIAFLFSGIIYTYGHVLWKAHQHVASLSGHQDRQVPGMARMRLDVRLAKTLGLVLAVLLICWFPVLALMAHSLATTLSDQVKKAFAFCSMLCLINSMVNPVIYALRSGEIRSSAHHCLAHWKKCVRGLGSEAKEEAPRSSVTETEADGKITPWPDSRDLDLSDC
Genome polyprotein, sequence (P29990 2492-3391 limits assumed): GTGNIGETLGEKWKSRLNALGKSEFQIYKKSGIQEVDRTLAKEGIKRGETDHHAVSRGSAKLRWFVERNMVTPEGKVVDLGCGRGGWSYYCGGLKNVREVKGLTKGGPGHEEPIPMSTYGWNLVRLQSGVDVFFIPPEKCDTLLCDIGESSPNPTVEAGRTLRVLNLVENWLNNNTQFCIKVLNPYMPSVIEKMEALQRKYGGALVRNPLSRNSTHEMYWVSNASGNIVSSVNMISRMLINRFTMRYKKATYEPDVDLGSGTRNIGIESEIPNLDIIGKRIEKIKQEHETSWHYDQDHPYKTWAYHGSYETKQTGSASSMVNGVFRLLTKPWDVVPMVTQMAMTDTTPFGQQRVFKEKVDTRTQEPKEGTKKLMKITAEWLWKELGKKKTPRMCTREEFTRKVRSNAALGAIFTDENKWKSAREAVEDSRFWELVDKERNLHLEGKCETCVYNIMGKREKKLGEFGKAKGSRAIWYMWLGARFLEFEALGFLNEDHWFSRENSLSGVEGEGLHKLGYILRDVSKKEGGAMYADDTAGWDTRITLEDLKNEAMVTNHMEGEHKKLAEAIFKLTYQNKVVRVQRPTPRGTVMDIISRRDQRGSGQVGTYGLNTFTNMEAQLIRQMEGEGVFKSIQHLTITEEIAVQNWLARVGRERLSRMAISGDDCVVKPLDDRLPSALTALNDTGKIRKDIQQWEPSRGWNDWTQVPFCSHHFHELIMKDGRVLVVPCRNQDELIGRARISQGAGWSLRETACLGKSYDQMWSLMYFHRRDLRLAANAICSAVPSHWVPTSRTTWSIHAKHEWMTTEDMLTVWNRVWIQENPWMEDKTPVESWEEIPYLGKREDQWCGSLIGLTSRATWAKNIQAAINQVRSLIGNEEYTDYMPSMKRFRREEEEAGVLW
G-protein coupled receptor 55, sequence (Q9Y2T6 whole entry): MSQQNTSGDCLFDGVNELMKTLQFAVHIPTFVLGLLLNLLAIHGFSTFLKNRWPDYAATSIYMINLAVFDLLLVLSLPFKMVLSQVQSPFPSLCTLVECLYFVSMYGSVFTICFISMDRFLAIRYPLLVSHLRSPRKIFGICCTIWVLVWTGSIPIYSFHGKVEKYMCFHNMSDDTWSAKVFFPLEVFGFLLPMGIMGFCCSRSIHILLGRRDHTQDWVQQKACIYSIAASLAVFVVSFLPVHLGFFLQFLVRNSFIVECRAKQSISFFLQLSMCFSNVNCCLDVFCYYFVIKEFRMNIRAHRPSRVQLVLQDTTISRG
Hexokinase-1, sequence (P19367 whole entry): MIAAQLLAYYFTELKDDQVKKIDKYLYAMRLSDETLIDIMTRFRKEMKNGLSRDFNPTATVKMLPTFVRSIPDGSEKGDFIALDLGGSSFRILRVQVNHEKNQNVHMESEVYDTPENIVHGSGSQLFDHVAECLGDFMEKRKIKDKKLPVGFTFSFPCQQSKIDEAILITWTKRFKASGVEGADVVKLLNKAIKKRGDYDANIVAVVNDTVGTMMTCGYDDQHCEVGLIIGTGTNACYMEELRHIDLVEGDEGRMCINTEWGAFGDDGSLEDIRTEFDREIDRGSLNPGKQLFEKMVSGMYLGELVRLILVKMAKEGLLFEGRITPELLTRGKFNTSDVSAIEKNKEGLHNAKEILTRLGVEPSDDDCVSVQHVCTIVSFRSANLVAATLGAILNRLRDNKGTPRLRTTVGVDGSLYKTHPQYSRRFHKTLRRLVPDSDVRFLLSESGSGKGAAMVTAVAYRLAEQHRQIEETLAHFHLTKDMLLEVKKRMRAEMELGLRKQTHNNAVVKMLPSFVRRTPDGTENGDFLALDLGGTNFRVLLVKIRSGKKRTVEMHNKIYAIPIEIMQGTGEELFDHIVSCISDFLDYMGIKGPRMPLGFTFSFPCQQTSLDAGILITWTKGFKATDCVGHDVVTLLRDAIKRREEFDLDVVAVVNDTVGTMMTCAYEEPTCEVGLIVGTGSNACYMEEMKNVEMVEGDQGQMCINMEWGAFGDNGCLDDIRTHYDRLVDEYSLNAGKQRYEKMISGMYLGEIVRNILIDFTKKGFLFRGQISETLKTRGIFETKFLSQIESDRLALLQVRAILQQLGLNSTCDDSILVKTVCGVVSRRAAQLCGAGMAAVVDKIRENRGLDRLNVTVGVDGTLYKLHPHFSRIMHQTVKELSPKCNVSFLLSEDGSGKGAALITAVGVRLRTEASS

As to `O=C1C(C2=C(O)c3ccccc3C2=O)=Nc2ccccc21`, the results for the EC50 on Hexokinase-1, at Protein RecA and on Hexokinase HKDC1 were 37.1 µM (inactive), 1.6 µM (active) and 24.7 µM (inactive), respectively. In addition, the half-inhibitory concentration (IC50) (usually the point on the concentration scale where inhibition reaches its midpoint) in assay [1] is 1.31 µM (active); at Genome polyprotein, 56.9 µM (active). Besides, the CC50 (commonly the concentration giving 50% cytotoxicity) in the assay on Vero is 26.6 µM (active).
Turning to `Cc1nc(N2CCN(C(=O)NCc3ccccc3)CC2)c2c3c(sc2n1)CCCC3`, the IC50 at Cannabinoid receptor 2 [2] is > 15.2 µM (inactive); on Cannabinoid receptor 1 [3], 6.66 µM (active); in assay [4], > 32 µM (inactive); in [8], 13 µM (inactive). The EC50 (on Cannabinoid receptor 2 [5]; on Cannabinoid receptor 1 [6]; in [7]) was > 32 µM (inactive) each time.
Regarding `CCCCCCCn1c(=N)n(CC(=O)c2ccco2)c2ccccc21`, in [9], the EC50 (as a rule, the concentration giving half of the maximal effect) was > 100 µM (inactive).
`CC(=O)N1N=C(c2ccccc2)CC1c1cn(Cc2ccccc2)c2ccccc12` (configuration not stated): the IC50 in [10] was 2 µM (active); in [12], 0.748 µM (active). In [11], the EC50 was 1.2 µM (active).
